The source of these data is publication PMC6367500, “18β-glycyrrhetyl-3-O-sulfate would be a causative agent of licorice-induced pseudoaldosteronism” (Scientific Reports, 2019).

Data set [1] in a line: Plasma and urine levels of GA metabolites in EHBRs orally treated with GA (LC-MS/MS). Format: in vivo, Eisai hyperbilirubinuria rats (EHBRs). The note with it: for level in accumulated urine for 12 h relative to that of 3MGA / concentration at 12 h / level in accumulated urine for 12 h: GA 200 mg/kg orally; for concentration at 12 h: oral, read-out: plasma concentration at 12 h after treatment. The protocol: (§1) Female SD rats or EHBRs (9-week-old) were anesthetized by an intraperitoneal (i.p.) injection of urethane (1 g/kg) and their jugular veins were exposed. […] Feces were homogenized in phosphate-buffered saline (PBS; 0.15 M, pH 7.2), centrifuged (1.2 × 10^4 g, 10 min), and the supernatants were collected. After 1 week as a washout period, female SD rats were anesthetized by an i.p. injection of urethane (1 g/kg) and their biliary tract was cannulated. […] Aliquots (10 µl) of plasma, urine, homogenate of feces, or bile were mixed with 20 µl of subtilisin (0.91 U/ml) and incubated at 37 °C for 30 min, followed by the addition of 70 µl of astragaloside IV solution (1 µg/ml in ethanol containing 0.5% formic acid, used as internal standard), and kept at −20 °C for 30 min.

Another data set relates to anti-3MGA-mAb. The data set can be described thus: Competitive ELISA using anti-3MGA-mAb. Particulars: specificity to 3MGA calibrated to 100%, n = 1. In kind it is binding. The procedure:
Figure 5 Dot-blot analysis and ELISA detection range of GL metabolites using anti-3MGA-monoclonal antibody (mAb). GL metabolites (1 µg each) were spotted on a PES membrane, and colored using an anti-3MGA-mAb (A). Competitive ELISA using anti-3MGA-mAb for GL metabolites was performed. Data are represented from a single analysis (n = 1) (B). […] Data are represented as mean ± S.D. (n = 3). Two-way ANOVA indicated a significant difference between GA and 3 (F1,36 = 4441, P < 0.001), concentrations (F8,36 = 315, P < 0.001), and their interactions (F8,36 = 281, P < 0.001). The calibrated line for the absorbance-concentration profile of 3 was calculated by the linear least-squares method, and the regression formula is shown in graph (C).
When the specificity of the mAb to 3MGA was calibrated to 100%, the cross-reactivity for GL, GA, 1, 2, and 3 was 0.23%, 2.2%, 4.8%, 4.0%, and 23%, respectively. […] We confirmed the selectivity of the anti-3MGA-mAb in discriminating between 3 and GA and established the detectable measurement range for 3 in this ELISA system.
3MGA-HSA (1 µg/ml in 50 mM carbonate buffer, pH 9.6) was added into a 96-well plate (Nagel Nunc, Penfield, NY, USA) (100 µl in a well) and incubated at 37 °C for 1 h. After the removal of 3MGA-HSA, the wells were washed three times with T-PBS (200 µl in a well). The wells were incubated with 300 µl in a well of 5% skim milk at 4 °C overnight. After the wells had been washed with T-PBS three times, the sample solution diluted with Can Get Signal® Solution 1 (Toyobo Co., Ltd., Osaka, Japan) (50 µl in a well) and anti-3MGA-mAb (1:4,000 dilution with Can Get Signal® Solution 1) (50 µl in a well) were added to the wells, and the plate was incubated at 37 °C for 1 h. After the wells had been washed with T-PBS three times, HRP-labeled goat anti-mouse IgG (Fc specific) antibody (Sigma, 1:20,000 dilution with Can Get Signal® Solution 2) was added into the wells (100 µl in a well) and the plate was incubated at 37 °C for 1 h. Next, the wells were washed with T-PBS three times and the substrate solution (3,3′,5,5′-tetramethylbensidine, TMB solution; Fujifilm Wako Pure Chemical Corporation, Osaka, Japan) was added to the wells (100 µl in a well), followed by incubation at room temperature for 5 min. Then, the stop solution (0.5 M sulfuric acid) was added to the wells (100 µl in a well) and the optical density was measured at 450 nm/630 nm.
A general note: In an ELISA, binding on a coated surface is turned into a signal by an enzyme label.

In another data set the test system is rat kidney slices. As to the kind of experiment: Uptake into rat kidney slices from pooled EHBR plasma. The note with it: pH 5.5, 2 h. In kind it is in vitro ADME, SD rats. The protocol: Kidney slices were prepared from SD rats and incubated with the pooled plasma, the pH of which pH was adjusted to 5.5 at 4 °C or 37 °C for 2 h. Figure 4A–C show the amounts of 2, 3, and GA accumulated in the kidney slices.
Figure 4 Uptake of 2 and 3 into rat kidney slices (A–C) or into MDCK II cells stably expressing OAT1 or OAT3 (D–F). Female EHBRs were orally treated with GA (200 mg/kg), and their plasma samples were collected […] after the treatment. The concentrations of compounds 2, 3, and GA in the plasma samples of EHBRs were 7.8, 11.5, and 7.0 µM, respectively. Kidneys were collected from normal SD rats, and the kidney slices were incubated with the plasma samples of EHBRs at 37 °C or 4 °C for 2 h (A–C). MDCK II cells stably expressing OAT1 or OAT3 were incubated with the plasma samples of EHBRs at 37 °C for 15 min (D–F). Then, the concentrations of compounds 2, 3, and GA in kidney slices or the cells were measured by LC-MS/MS. Data are expressed as mean ± S.E. (n = 3 for (C, D), and (E); n = 6 for (A, B), and F). *P < 0.05 and **P < 0.01 vs 4 °C group by Student’s t-test for (A–C), and vs mock cells by Dunnett’s multiple t-test for (D–F).
Uptake studies using rat kidney slices and cells stably expressing OAT1 and OAT3 were conducted with the same protocol as in our previous study. We used the same pooled plasma of female EHBRs orally treated with GA for 12 h as in our previous study.

The nature of data set [2]: Fecal excretion of GA metabolites in SD rats injected i.v. with GA. Format: in vivo. The note with it: GA 0.2 mg/kg i.v. The procedure: (§2) Then, bile samples were collected for 4 h (E).
as §1

A short description of data set [3]: Plasma and urine levels of GA metabolites in SD rats orally treated with GA (LC-MS/MS). In kind it is in vivo. The note with it: GA 0.20 g/kg orally; for concentration at 12 h: female, SD (Sprague-Dawley), rat, plasma, po, 0.2 g/kg. The protocol: as §2, §1
The nature of data set [4]: Binding to serum albumin by ultrafiltration of pooled EHBR plasma. Particulars: female, EHBR (Eisai hyperbilirubinuria rat), oral, 200 mg/kg.
The mark [5] stands for this setting: female, EHBR (Eisai hyperbilirubinuria rat), rat, plasma.

Where only a bound is given, the exact number is not on record here.

For the compound `CC1(C)[C@@H](OS(=O)(=O)O)CC[C@]2(C)[C@H]3C(=O)C=C4[C@@H]5C[C@@](C)(C(=O)O)CC[C@]5(C)CC[C@@]4(C)[C@]3(C)CC[C@@H]12` [compound 3, 18β-glycyrrhetyl-3-O-sulfate], the “level in accumulated urine for 12 h relative to that of 3MGA” value (“level … for 12 h relative to that of 3MGA” below) in data set [1] is 62 fold. Further, the concentration at 12 h is about 10 µM in data set [1] (setting [5]), 0.3 µM in data set [3], under 0.0032 µM in data set [4] (plasma ultrafiltrate) and 11.5 µM in data set [4] (plasma). Moreover, the “cross-reactivity of anti-3MGA-mAb” value in the data set on anti-3MGA-mAb was found to be 23%. In the data set on rat kidney slices, the “uptake by kidney slices at 37 °C compared with 4 °C” value (shortened to “uptake … compared with 4 °C”) was “significantly higher”. Further, in data set [2], the “detection in feces collected for 24 h” value was “found”. In data set [3], the “amount in accumulated urine collected 12 h after oral treatment” value (“amount” for short) is listed as 0.03 nmol.

As for `CC1(C)[C@@H](O)CC[C@]2(C)[C@H]3C(=O)C=C4[C@@H]5C[C@@](C)(C(=O)O)CC[C@]5(C)CC[C@@]4(C)[C@]3(C)CC[C@@H]12` [GA, glycyrrhetinic acid, reference compound], the “level in accumulated urine for 12 h” value in data set [1] came out at 0.05 nmol. Moreover, the concentration at 12 h in data set [1] (setting [5]) was about 10 µM; in data set [3], 4.7 µM; in data set [4] (plasma ultrafiltrate) it was under 0.016 µM; in data set [4] (plasma) it was 7 µM. Besides, the Tmax in data set [1] (female, EHBR (Eisai hyperbilirubinuria rat), rat, plasma, po, 0.2 g/kg, GA 0.20 g/kg orally, read-out: time of maximum plasma concentration) was found to be 1 h. Moreover, the “cross-reactivity of anti-3MGA-mAb” value with anti-3MGA-mAb stood at 2.2%. Moreover, the “uptake … compared with 4 °C” value with rat kidney slices is recorded as “not different”. Further, in data set [3], the “time of plasma peak after oral treatment” value came out at 1 h.

Regarding `CC1(C)[C@@H](O[C@@H]2O[C@H](C(=O)O)[C@@H](O)[C@H](O)[C@H]2O)CC[C@]2(C)[C@H]3C(=O)C=C4[C@@H]5C[C@@](C)(C(=O)O)CC[C@]5(C)CC[C@@]4(C)[C@]3(C)CC[C@@H]12` [3MGA, 3-monoglucuronyl glycyrrhetinic acid, reference compound], in data set [1], the “level in accumulated urine for 12 h” value was determined as 0.31 nmol. In addition, in data set [1] (setting [5]), the concentration at 12 h amounted to 0.09 µM. Further, the “cross-reactivity of anti-3MGA-mAb” value in the data set with anti-3MGA-mAb is given as 100%. Besides, the “detection in feces collected for 24 h” value in data set [2] was “not found”. Also, in data set [3], the “amount” value is “below detectable levels”.

With `CC1(C)[C@@H](OS(=O)(=O)O)CC[C@]2(C)[C@H]3C(=O)C=C4[C@@H]5C[C@@](C)(C(=O)O[C@@H]6O[C@H](C(=O)O)[C@@H](O)[C@H](O)[C@H]6O)C[C@H](O)[C@]5(C)CC[C@@]4(C)[C@]3(C)CC[C@@H]12` [compound 1, 22α-hydroxy-18β-glycyrrhetyl-3-O-sulfate-30-glucuronide], the “level … for 12 h relative to that of 3MGA” value in data set [1] was 8 fold. For the same compound, the concentration at 12 h in data set [1] (setting [5]) was about 10 µM. For the same compound, the “cross-reactivity of anti-3MGA-mAb” value with anti-3MGA-mAb was 4.8%. Besides, the “detection in feces collected for 24 h” value in data set [2] is reported as “not found”. Further, the “amount” value in data set [3] was “below detectable levels”.

With `CC1(C)[C@@H](OS(=O)(=O)O)CC[C@]2(C)[C@H]3C(=O)C=C4[C@@H]5C[C@@](C)(C(=O)O)C[C@H](O)[C@]5(C)CC[C@@]4(C)[C@]3(C)CC[C@@H]12` [compound 2, 22α-hydroxy-18β-glycyrrhetyl-3-O-sulfate], the “level … for 12 h relative to that of 3MGA” value in data set [1] is 110 fold. Besides, the concentration at 12 h in data set [1] (setting [5]) was about 10 µM; in data set [4] (plasma ultrafiltrate), under 0.0032 µM; in data set [4] (plasma), 7.8 µM. Besides, the “cross-reactivity of anti-3MGA-mAb” value in the data set with anti-3MGA-mAb came to 4.0%. Besides, the “uptake … compared with 4 °C” value with rat kidney slices is recorded as “significantly higher”. In addition, the “detection in feces collected for 24 h” value in data set [2] was “found”. In data set [3], the “amount” value is on record as “below detectable levels”.
